# Data: patent publication US7887784B2, “1-[(2′-substituted)-piperazin-1′ -yl]-isoquinolines as norepinephrine transporter inhibitor therapeutics and positron emission tomography imaging agents” (University of Montana, priority 2007, dated 2011)
# Legend:
# 5-HT1A = target: T1, 5-HT1A (Homo sapiens, UniProt P08908); experiment: 5-HT1A receptor competitive binding, [3H]8-OH-DPAT; conditions: partially purified human protein expressed in CHO cells, nonspecific 5-HT, 30° C., 0.5 h, read-out: Ki of (±)-14, 5-HT1A
# T1 sequence (P08908 1-422): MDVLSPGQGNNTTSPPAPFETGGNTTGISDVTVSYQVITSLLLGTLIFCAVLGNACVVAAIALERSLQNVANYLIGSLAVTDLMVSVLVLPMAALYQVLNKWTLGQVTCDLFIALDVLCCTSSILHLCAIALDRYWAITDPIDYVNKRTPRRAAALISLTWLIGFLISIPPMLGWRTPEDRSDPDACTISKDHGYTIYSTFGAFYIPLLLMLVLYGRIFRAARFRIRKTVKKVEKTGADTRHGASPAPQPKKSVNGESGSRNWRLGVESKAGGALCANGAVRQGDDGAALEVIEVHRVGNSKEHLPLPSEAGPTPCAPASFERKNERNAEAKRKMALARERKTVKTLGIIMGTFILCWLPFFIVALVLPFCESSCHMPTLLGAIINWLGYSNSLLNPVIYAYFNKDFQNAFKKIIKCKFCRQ
# Description: (§1) The evaluation of the competitive binding affinities (Ki values) of (±)-14 for the serotonin and dopamine transporter proteins (SERT and DAT, respectively), the beta-adrenergic receptor, and also serotonin 1a and 2a receptors has been made. The competitive binding profiles of (±)-14 at these other CNS sites are summarized in Table 2, where the assay conditions are defined. […] Thus, compound (±)-14 is considered to have potent NET selectivity (Table 1, Example X) relative to the potencies at the other sites as defined per Table 2.
# SERT = SERT (Rattus norvegicus, UniProt P31652); experiment: SERT competitive binding, [3H]Citalopram; conditions: partially purified rat protein, nonspecific Clomipramine, 25° C., 1 h, read-out: Ki of (±)-14, SERT
# Description: as §1
# 5-HT2A = 5-HT2A (Homo sapiens, UniProt P28223); experiment: 5-HT2A receptor competitive binding, [3H]Ketanserin; conditions: partially purified human protein expressed in CHO cells, nonspecific Mianserin, 30° C., 0.5 h, read-out: Ki of (±)-14, 5-HT2A
# Description: as §1
# NET = target: T2, NET (Rattus norvegicus, UniProt Q9WTR4); experiment: NET competitive binding assay with [3H]nisoxetine, rat brain cortical homogenates; conditions: partially purified rat brain cortical homogenates, 0° C., 4 h, Ki derived from IC50
# T2 construct: The protocol employed partially purified rat brain cortical homogenates; from tissue; host or cells: rat brain cortex homogenate
# Description: The protocol employed partially purified rat brain cortical homogenates, [^3H]nisoxetine, incubated 0° C., 4 h; with nonspecific binding determined with added 1 microM of desipramine (DMI) and desipramine as the parallel positive control.
# DAT = DAT (Rattus norvegicus, UniProt P23977); experiment: DAT competitive binding, [3H]B-CFT; conditions: partially purified rat protein, nonspecific GBR-12,909, 0° C., 2 h, read-out: Ki of (±)-14, DAT
# Description: as §1
# T2 sequence (Q9WTR4 1-597): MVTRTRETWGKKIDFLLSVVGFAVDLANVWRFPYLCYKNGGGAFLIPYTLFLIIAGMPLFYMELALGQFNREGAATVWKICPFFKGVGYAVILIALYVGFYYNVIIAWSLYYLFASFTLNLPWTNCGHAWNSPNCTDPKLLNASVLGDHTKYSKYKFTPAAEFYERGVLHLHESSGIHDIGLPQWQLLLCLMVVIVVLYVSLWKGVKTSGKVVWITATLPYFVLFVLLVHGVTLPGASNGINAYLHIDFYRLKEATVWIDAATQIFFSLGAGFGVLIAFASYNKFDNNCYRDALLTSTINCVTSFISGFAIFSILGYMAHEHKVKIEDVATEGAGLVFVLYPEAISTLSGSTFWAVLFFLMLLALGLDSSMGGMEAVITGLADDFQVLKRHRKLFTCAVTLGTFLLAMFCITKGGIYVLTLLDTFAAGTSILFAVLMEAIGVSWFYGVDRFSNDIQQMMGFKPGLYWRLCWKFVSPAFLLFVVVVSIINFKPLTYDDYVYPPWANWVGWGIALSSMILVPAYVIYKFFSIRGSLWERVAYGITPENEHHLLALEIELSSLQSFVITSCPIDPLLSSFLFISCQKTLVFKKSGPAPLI
# Chain of 5-HT2A (P28223 whole entry): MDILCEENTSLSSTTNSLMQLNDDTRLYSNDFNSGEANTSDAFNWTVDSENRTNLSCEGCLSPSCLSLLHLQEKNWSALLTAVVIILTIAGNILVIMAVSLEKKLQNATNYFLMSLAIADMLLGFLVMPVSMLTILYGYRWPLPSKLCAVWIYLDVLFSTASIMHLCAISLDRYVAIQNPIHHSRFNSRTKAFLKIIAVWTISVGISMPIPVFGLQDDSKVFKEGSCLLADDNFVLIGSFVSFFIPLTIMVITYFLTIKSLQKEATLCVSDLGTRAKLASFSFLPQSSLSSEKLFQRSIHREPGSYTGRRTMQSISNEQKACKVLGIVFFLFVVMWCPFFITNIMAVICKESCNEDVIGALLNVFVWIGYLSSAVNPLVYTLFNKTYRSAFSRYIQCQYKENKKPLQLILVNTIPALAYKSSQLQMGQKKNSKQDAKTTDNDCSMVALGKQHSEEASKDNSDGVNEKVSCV
# Chain of SERT (P31652 whole entry): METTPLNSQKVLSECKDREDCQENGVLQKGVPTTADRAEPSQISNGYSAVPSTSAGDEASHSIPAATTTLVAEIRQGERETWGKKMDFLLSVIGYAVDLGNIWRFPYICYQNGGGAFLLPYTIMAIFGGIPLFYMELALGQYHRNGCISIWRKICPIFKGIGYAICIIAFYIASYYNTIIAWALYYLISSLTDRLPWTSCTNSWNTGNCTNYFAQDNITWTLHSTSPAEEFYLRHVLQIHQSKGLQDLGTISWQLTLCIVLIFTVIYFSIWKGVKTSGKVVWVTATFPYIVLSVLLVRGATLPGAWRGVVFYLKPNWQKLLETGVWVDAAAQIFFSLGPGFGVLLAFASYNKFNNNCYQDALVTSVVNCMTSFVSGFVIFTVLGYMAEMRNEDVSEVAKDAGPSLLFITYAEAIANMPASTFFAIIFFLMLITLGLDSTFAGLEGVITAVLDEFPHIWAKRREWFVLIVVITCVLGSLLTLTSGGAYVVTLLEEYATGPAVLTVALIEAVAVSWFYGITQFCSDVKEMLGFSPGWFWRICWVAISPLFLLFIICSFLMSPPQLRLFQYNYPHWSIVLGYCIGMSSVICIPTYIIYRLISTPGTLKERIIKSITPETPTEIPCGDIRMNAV
# Chain of DAT (P23977 whole entry): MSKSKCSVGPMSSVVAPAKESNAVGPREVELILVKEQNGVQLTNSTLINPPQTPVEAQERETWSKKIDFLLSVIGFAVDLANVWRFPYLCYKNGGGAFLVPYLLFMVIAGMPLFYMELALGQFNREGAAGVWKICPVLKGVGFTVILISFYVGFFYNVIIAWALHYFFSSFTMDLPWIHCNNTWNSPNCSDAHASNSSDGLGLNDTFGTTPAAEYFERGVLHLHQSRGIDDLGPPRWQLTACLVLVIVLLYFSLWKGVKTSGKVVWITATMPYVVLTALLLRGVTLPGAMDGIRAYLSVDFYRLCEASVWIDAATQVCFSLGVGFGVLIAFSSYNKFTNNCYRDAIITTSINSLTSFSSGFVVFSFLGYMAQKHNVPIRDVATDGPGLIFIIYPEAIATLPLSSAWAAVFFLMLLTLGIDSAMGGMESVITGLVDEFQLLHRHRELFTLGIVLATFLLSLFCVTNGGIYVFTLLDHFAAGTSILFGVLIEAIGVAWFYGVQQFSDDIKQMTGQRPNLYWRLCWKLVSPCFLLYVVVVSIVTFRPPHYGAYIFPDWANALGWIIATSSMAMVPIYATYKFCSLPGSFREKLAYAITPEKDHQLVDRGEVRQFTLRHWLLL
Structure (SMILES),Ki (5-HT1A),Ki (SERT),Ki (5-HT2A),Ki (NET),Ki (DAT)
"COCC1CNCCN1c1nccc2ccccc12 (racemic) [(±)-14, (±)-1-[2′-(Methoxymethyl)piperazin-1′-yl] isoquinoline]",> 10 µM,1800 nM,> 10 µM,4.14 nM,1570 nM
FCCCOCC1CNCCN1c1nccc2ccccc12 (racemic) [(±)-37],–,–,–,71.5 nM,–
"c1ccc(CC2CNCCN2c2nccc3ccccc23)cc1 (racemic) [Compound 9, (±)-1-[2′-(Benzyl)piperazin-1′-yl]isoquinoline]",–,–,–,16.2 nM,–
"COCC1CNCCN1c1nc(Cl)cc2ccccc12 (racemic) [Compound 17, (±)-3-Chloro-1-[2′-(methoxymethyl)piperazin-1′-yl]isoquinoline]",–,–,–,14.2 nM,–
"FCCCOC[C@@H]1CNCCN1c1nccc2ccccc12 [(S)-37, (S)-1-[2′-[(3-fluoropropoxy)methyl]piperazin-1′-yl]isoquinoline]",–,–,–,6.71 nM,–
